One experiment deals with cannabinoid receptors. In words: Mouse tetrad model, antagonistic effect against Win 55212-2. The class given is in vivo, Male NMRI mice. The following applies: for Antagonistic Effect in (%): against Win 55212-2 (1.25 mg/kg intravenous), substance injected 5 minutes before, tetrad parameter not specified; for Antagonism (%): summary table 1. The source says: Substances with affinity for cannabinoid receptors are known to produce a wide range of pharmacological effects. It is also known that intravenous administration of a substance with affinity for cannabinoid receptors in mice produces analgesia , hypothermia, sedation and catalepsy. Individually, none of these effects can be considered as proof that a tested substance has affinity for cannabinoid-receptors, since all of these effects are common for various classes of centrally active agents. However, substances, which show all of these effects, i.e. substances that are active in this so-called tetrad model are considered to have affinity for the cannabinoid receptors. It has further been shown that cannabinoid receptor antagonists are higly effective in blocking the effects of a cannabinoid agonist in the mouse tetrad model.
The tetrad model is described, for example, in the publication of A. C. Howlett et al, International Union of Pharmacology XXVII. Classification of Cannabinoid Receptors, Pharmacol Rev 54,161-202, 2002 and David R. Compton et al., "In-vivo Characterization of a Specific Cannabinoid Receptor Antagonist (SR141716A) :Inhibition of Tetrahydrocannbinol- induced Responses and Apparent Agonist Activity", J. Pharmacol. Exp. Ther. 277 , 2, 586-594, 1996. The corresponding parts of the description are hereby incorporated by reference.
Male NMRI mice with a weight of 20-30 g (Harlan, Barcelona, Spain) are used in all of the following experiments.
Before testing in the behavioral procedures given below, mice are acclimatized to the experimental setting. Pre-Treatment control values are determined for analgesia hot plate latency (in seconds), rectal temperature, sedation and catalepsy.
In order to determine the agonistic activty of the substance to be tested, the mice are injected intravenously with the substance to be tested or the vehicle alone. 15 minutes after injection, latency in hot plate analgesia is measured. Rectal temperature, sedation and catalepsy are measured 20 minutes after injection.
In order to determine the antagonistic activity the identical procedure is used as for the determination of the agonistic effects, but with the difference that the substance to be evaluated for its antagonistic activity is injectected 5 minutes before the intravenous injection of 1.25 mg/kg Win-55,212 a known cannabinoid-receptor agonist.
The hot plate analgesia is determined according to the method described in Woolfe D. et al. "The evaluation of analgesic action of pethidine hydrochloride (Demerol)", J. Pharmacol. Exp. Ther. 80, 300-307,1944. The respective description is hereby incorporated by reference and forms part of the present disclosure.
The mice are placed on a hot plate (Harvard Analgesimeter) at 55 ± 0.5 °C until they show a painful sensation by licking their paws or jumping and the time for these sensations to occur is recorded. This reading is considered the basal value (B). The maximum time limit the mice are allowed to remain on the hot plate in absence of any painful response is 40 seconds in order to prevent skin damage. This period is called the cut-off time (PC).
Fifteen minuts after the administration of the substance to be tested, the mice are again placed on the hot plate and the afore described procedure is repeated. This period is called the post-treatment reading (PT).
The degree of analgesia is calculated from the formula: % MPE of Analgesia = (PT-B)/(PC-B) × 100 [formula] MPE = Maximum possible effect.
Sedation and ataxia is determined according to the method described in Desmet L. K. C. et al. "Anticonvulsive properties of Cinarizine and Flunarizine in Rats and Mice", Arzneim. -Forsch. (Frug Res) 25, 9, 1975. The respective description is hereby incorporated by reference and forms part of the present disclosure.
The chosen scoring system is • 0: no ataxia; • 1: doubful; • 2: obvious calmness and quiet; • 3 pronounced ataxia; prior to as well as after treatment. […]

The next experiment addresses T1, CB1-Receptor (Homo sapiens, UniProt P21554).
T1 construct: purchased Receptor Biology, Inc
In words: In-vitro determination of affinity to CB1-Receptor (radioligand binding). The note with it: transfected human CB1 receptors; radioligand [^3H]-CP55940; read-out: CB1-Receptor Radiologand:[^3H]-CP55940 IC50. As to the method:
The in-vitro determination of the affinity of the inventive quaternary ammonium salts of substituted pyrazoline compounds to CB1/CB2Rezeptors is carried out as described in the publication of Ruth A. Ross, Heather C. Brockie et al., "Agonist-inverse agonist characterization at CB1 and CB2 cannabinoid receptors of L-759633, L759656 and AM630", British Journal of Pharmacology, 126, 665-672, (1999), whereby the transfected human CB1 and CB2 receptors of Receptor Biology, Inc. are used. The radioligand used for both receptors is [^3H]-CP55940. The respective parts of the description are hereby incorporated by reference and forms part of the present disclosure.

Structures are written as SMILES.

The values below come from patent EP1849784A1, “Indoline-substituted pyrazoline compounds, their preparation and use as medicaments” (LABORATORIOS DEL DR. ESTEVE, S.A., priority 2006, dated 2007).

T1 sequence (P21554 whole entry): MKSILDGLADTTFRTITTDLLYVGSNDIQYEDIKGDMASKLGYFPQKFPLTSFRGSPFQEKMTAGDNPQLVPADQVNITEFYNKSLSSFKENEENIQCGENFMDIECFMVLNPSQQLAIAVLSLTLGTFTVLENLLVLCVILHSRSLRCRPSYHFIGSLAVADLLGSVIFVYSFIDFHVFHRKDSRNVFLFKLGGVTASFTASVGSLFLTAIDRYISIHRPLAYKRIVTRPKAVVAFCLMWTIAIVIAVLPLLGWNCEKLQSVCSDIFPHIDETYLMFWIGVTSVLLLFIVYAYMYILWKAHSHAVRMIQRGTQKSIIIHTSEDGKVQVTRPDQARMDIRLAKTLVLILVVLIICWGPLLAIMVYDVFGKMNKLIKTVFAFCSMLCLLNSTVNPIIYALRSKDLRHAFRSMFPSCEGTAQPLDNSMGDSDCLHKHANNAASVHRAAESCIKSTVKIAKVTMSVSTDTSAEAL

As to `CC1Cc2ccccc2N1NC(=O)C1=NN(c2ccc(Cl)cc2Cl)C(c2ccc(Cl)cc2)C1` (stereo not shown) [Example 1, 5-(4-chlorophenyl)-1-(2,4-dichlorophenyl)-N-(2-methylindolin-1-yl)-4,5-dihydro-1H-pyrazole-3-carboxamide], in the experiment with cannabinoid receptors, the “Antagonistic Effect in (%)” value is listed as 33% and the “Antagonism (%)” value amounted to 33%.
Usually IC50 stands for the concentration at which inhibition is half-maximal. Take `O=C(NN1CCc2ccccc21)C1=NN(c2ccc(Cl)cc2Cl)C(c2ccc(Cl)cc2)C1` (stereo not shown) [Example 2, 5-(4-chlorophenyl)-1-(2,4-dichlorophenyl)-N-(indolin-1-yl)-4,5-dihydro-1H-pyrazole-3-carboxamide]: in the experiment with cannabinoid receptors, the “Antagonistic Effect in (%)” value is on record as 65±15% and the “Antagonism (%)” value is on record as 65 ± 15%. On CB1-Receptor, the IC50 was 0.1 µM.
Take `O=C(NN1CCc2ccccc21)C1=NN(c2ccc(Cl)cc2Cl)C(c2ccc(Br)cc2)C1` (stereo not shown) [Example 6, 5-(4-bromophenyl)-1-(2,4-dichlorophenyl)-N-(indolin-1-yl)-4,5-dihydro-1H-pyrazole-3-carboxamide]: in the experiment on cannabinoid receptors, the “Antagonistic Effect in (%)” value is on record as 88 ± 10% and the “Antagonism (%)” value is recorded as 88 ± 10%.
